Measurements taken from patent US20260132123A1, “ABAD INHIBITOR COMPOUNDS” (UNIVERSITY COURT OF THE UNIVERSITY OF ST ANDREWS, priority 2021, published 2026).
Like-named read-outs stand apart in the source and are kept apart here.

Key:
[1] = target: T1, 17β-HSD10 (Homo sapiens, UniProt Q99714); experiment: 17β-HSD10 (ABAD) enzyme inhibition assay, NADH oxidation read at 340 nm (primary screen and dose response); assay type: biochemical; details: for EC50 / Max. Effect (%) / Hill Slope / Max. Fit / Min. Fit: recombinant 17βHSD10 enzyme assay; for Hill Slope / Max. Fit / Min. Fit: curve fit
T1 construct: Histev (histidine tag with TEV site) (N, cleaved yes); made in house; host or cells: E. coli BL21-CodonPlus
T1 sequence (Q99714 1-261): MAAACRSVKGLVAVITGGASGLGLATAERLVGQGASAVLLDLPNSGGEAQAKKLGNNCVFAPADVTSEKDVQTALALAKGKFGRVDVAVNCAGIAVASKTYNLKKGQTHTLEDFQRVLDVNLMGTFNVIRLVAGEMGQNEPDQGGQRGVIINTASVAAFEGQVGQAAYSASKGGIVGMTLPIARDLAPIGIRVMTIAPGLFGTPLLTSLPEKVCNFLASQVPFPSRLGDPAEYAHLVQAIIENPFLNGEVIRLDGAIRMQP
In short: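 Tag-cleaved recombinant human 17β-HSD10 (2.5 nM) preincubated 15 min with compound in Tris pH 7.4, NaCl, DTT, Tween, BSA (catalase in some runs), then 100 μM acetoacetyl-CoA and NADH added. NADH oxidation by A340 fall: 35 min endpoint for screening at 10 μM; continuous 45 min for dose response.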

[2] = Mouse hepatocyte stability; assay type: in vitro ADME; set-up: k: unit not given here; details: for Heps Category: hepatocyte metabolism category, mouse; for Cl / half-life / k: mouse hepatocytes; for Cl: clearance; for k: k=absorption rate constant (so in the source)
Text: (§1) Table 5: Initial mouse hepatocyte stability and plasma protein binding experiments were undertaken on some of the best exemplars from the representative series with AG18051 a previously published 17β-HSD10 inhibitor (C. R. Kissinger et al., J. Mol. Biol., 342 (2004), p. 943; Lim, Y.-A., Grimm, A., Giese, M. PLoS ONE (2011), 6, e28887.) Ref: shown for comparison. Where k=absorption rate constant Cl=clearance, T1/2=half-life, Heps=hepatocyte metabolism, PPB=plasma protein binding.

[3] = Mouse plasma protein binding; assay type: in vitro ADME
Text: as §1

[4] = target: T1, 17β-HSD10; experiment: Mechanism of action against the substrates NADH and AcetoAcetyl CoA; assay type: biochemical
Experimental: To determine the kinetics for acetoacetyl-CoA and the effect of 17β-HSD10 concentration upon reaction rate, a matrix titration experiment was set up. Previously determined conditions were used with a fixed concentration of 700 μM NADH and a starting concentration of up to 200 μM acetoacetyl-CoA. Doubling dilutions of acetoacetyl-CoA were then coupled with doubling dilutions of 17β-HSD10, which started with a maximum concentration of 40 nM. Data collected from the experiment was analysed using a standard template, from which reaction progress curves were analysed to calculate initial velocities and obtain Km values using the Michaelis-Menten equation (XLFit, ID Business Solutions).
To determine the kinetics for NADH and the effect of 17β-HSD10 concentration upon reaction rate a matrix titration experiment was set up. Previously determined conditions (Aitken et al. 2017, supra) were used, 120 μM acetoacetate and a starting concentration of up to 1000 μM NADH. Doubling dilutions of NADH were then coupled with doubling dilutions of 17β-HSD10, which started with a maximum concentration of 40 nM. Data were analysed as described previously (Aitken et al. 2017, supra).
Two compounds, ESC1002033 and ESC1002082, representative of the two different clusters were investigated for their mechanism of action against the substrates, NADH and AcetoAcetyl CoA (AcAc). The ESC inhibitors were tested as 12-point 1 in 1.5 dilution series with a maximal concentration of 2.5 μM.

[5] = tested on: mtsABAD HEK293 cells; experiment: Alamar Blue cell viability assay; assay type: cell-based, human; details: 50 μM compound
[6] = tested on: mtsABAD HEK293 cells; experiment: Lactate dehydrogenase (LDH) cytotoxicity assay; assay type: cell-based, human; details: 50 μM compound
[7] = Table 5, read-out: Mean ABAD pIC50 (converted)

Structure (SMILES)	IC50 [1, 7] [nM]	EC50 [1] [nM]	Max. Effect (%) [1] [%]	Hill Slope [1]	Max. Fit [1]	Min. Fit [1]	Heps Category [2]	Cl [2] [ml/minute/g liver]	half-life [2] [min]	k [2]	Alamar Blue % Viability (50 μM Dose) [5] [%]	LDH % Toxicity (50 μM Dose) [6] [%]	also measured
COc1cccc(-c2ccccc2[C@@H]2CCCN2C(=O)c2[nH]ncc2Cl)c1 (single isomer, unassigned) [ESC1002757]	105	115	94	0.89	95	−10	High	62.4	5.33	0.13			
CC(C)CN(C(=O)c1c(F)cccc1F)c1cccc(N(C)Cc2c[nH]cn2)c1 [ESC1002456, 2,6-difluoro-N-[3-[1H-imidazol-4-ylmethyl(methyl)amino]phenyl]-N-isobutyl-benzamide]		138	97	1.2	96	17	High	8.6		0.018			Mouse PPB (% free) [3]: 8.9 % free; Mean ABAD pIC50 ([1]; Table 5): 6.86
Cc1ccsc1C(=O)N1CCC[C@H]1c1ccccc1-c1cccc(Cl)c1 (single isomer, unassigned) [ESC1002769]	170	191	94	1	93	−3	High	71.5	4.65	0.15			
Cc1ccsc1C(=O)N(CC(C)C)c1cccc(N(C)Cc2c[nH]cn2)c1 [ESC1002597]	398	398	100	1.4	96	4	Mod	7.2	46.2	0.02			
O=C(c1sccc1Cl)N1CCC[C@H]1c1ccccc1-c1cc(O)ccc1F (single isomer, unassigned) [ESC1002842]	34.7	40.7	102	1.1	98	−3	High	83.1	4	0.17			Mouse PPB (% free) [3]: 3.4 % free
COc1ccc(-c2ccccc2C2CCCN2C(=O)c2sccc2C)cn1 (racemic) [ESC1002082, [2-[2-(6-methoxy-3-pyridyl)phenyl]pyrrolidin-1-yl]-(3-methyl-2-thienyl)methanone]		794	96	1.1	98	0							17β-HSD10 pIC50 ([1]; 17β-HSD10 dose response / inhibition assay): 6.1; IC50 ([1]; primary screening, resynthesized HTS hit compounds, read-out: ABAD plC50 (converted)): 794 nM; mode of binding with respect to NADH ([4]; AcAc in excess at 800 μM): non-competitively; mode of binding with respect to AcAc ([4]; excess of 100 μM NADH): competitively
Cc1ccc(C(=O)N(CC(C)C)c2cccc(N(C)Cc3c[nH]cn3)c2)c(F)c1 [ESC1002575, 2-fluoro-N-[3-[1H-imidazol-4-ylmethyl(methyl)amino]phenyl]-N-isobutyl-4-methyl-benzam]		269	102	1.3	101	10	Mod	5.8		0.012			Mouse PPB (% free) [3]: 7.6 % free; Mean ABAD pIC50 ([1]; Table 5): 6.57
Cc1ncc(CN(C)c2cccc(N(CC(C)C)C(=O)c3ccccc3F)c2)[nH]1 [ESC1002204]	398	398	97	1.2	98	0	High	54	6.16	0.11			Alamar Blue % Viability (50 μM Dose) ([5]; listed as ESC1002204-01): 88.836%; 17β-HSD10 / ABAD activity in words (SAR discussion) [1]: only slightly reduced ABAD inhibition levels; LDH % Toxicity (50 μM Dose) ([6]; listed as ESC1002204-01): 5.048%
O=C(c1[nH]ncc1Cl)N1CCC[C@H]1c1ccccc1-c1cccc(O)c1 (single isomer, unassigned) [ESC1002799]	110	155	97	1.1	96	−3	High	21.9	15.2	0.046			Mouse PPB (% free) [3]: 9.9 % free
CC(C)CN(C(=O)c1ccccc1)c1cccc(N(C)Cc2cnc[nH]2)c1 [ESC1002169, N-[3-[1H-imidazol-5-ylmethyl(methyl)amino]phenyl]-N-isobutyl-benzamide]		646	97	1.1	98	0					84.229	4.554	
Cc1ccsc1C(=O)N1CCC[C@@H]1c1ccccc1-c1cccnc1 [ESC1002090]		1150	94	1.1	97	0					102.627	5.162	
COCCn1cnc(CN(C)c2cccc(NC(=O)c3ccccc3F)c2)c1 [ESC1002163]		> 20000	0								78.775	4.975	
COc1ccc(-c2ccccc2[C@H]2CCCN2C(=O)c2ccc(C)cc2)cn1 (stereo in doubt) [ESC1002120, [2-[2-(6-methoxy-3-pyridyl)phenyl]pyrrolidin-1-yl]-(p-tolyl)methanone]		> 20000	13								81.743	4.611	
Cc1ccsc1C(=O)N1CCC[C@@H]1c1ccccc1-c1cn[nH]c1 [ESC1002092]		1230	93	1	98	0					80.606	4.240	
COCCN(C(=O)c1ccccc1F)c1cccc(N(C)Cc2c[nH]cn2)c1 [ESC1002266, 2-fluoro-N-[3-[1H-imidazol-4-ylmethyl(methyl)amino]phenyl]-N-(2-methoxyethyl)benzamide]		6460	74	0.98	100	−4					89.86	5.22	
Cc1ccccc1-c1ccccc1[C@@H]1CCCN1C(=O)c1sccc1C [ESC1002323]		468	106	1.4	101	7					96.19	5.03	
COCCN(C(=O)c1ccccc1F)c1cccc(N(C)Cc2cn(CCOC)cn2)c1 [ESC1002164, 2-fluoro-N-(2-methoxyethyl)-N-[3-[[1-(2-methoxyethyl)imidazol-4-yl]methyl-methylamino]phenyl]benzamide]		> 20000	2								77.951	5.093	
